Test results as given in patent publication US20170240556A1, “BIFLUORODIOXALANE-AMINO-BENZIMIDAZOLE KINASE INHIBITORS FOR THE TREATMENT OF CANCER, AUTOIMMUNEINFLAMMATION AND CNS DISORDERS” (4SC DISCOVERY GMBH, priority 2012, published 2017).

Assays:
[1] = target: Casein kinase 1 delta (CSKN1D) (Homo sapiens, UniProt P48730); experiment: Casein kinase assay, CK1 delta; format: biochemical; conditions: recombinant CSKN1D 5 nM, ATP 10 μM
Description: (§1) The recombinant protein Casein kinase 1 delta (CSKN1D) was added to the substrate solution in a concentration of 5 nM and gently mixed. Dilution series in of compounds of the present invention in DMSO were added to the reaction mixture, followed after 20 min by addition of a mixture of ATP and ^33P-ATP (specific activity 0.01 μCi/μl final) to a final concentration of 10 μM. Reactions were carried out at 25° C. for 120 min, followed by spotting the reactions onto P81 ion exchange filter paper. Unbound phosphate was removed by washing of the filters in 0.75% phosphoric acid. […] IC50 values and curve fits were obtained using the program Prism® (Graph Pad Software).

[2] = target: Casein kinase 1 epsilon (CSKN1E) (Homo sapiens, UniProt P49674); experiment: Casein kinase assay, CK1 epsilon; format: biochemical; conditions: recombinant CSKN1E 30 nM, ATP 10 μM
Description: as §1
The above assay was also used to determine the inhibitory capacity of the compounds of the present invention on Casein Kinase 1 epsilon, wherein instead of CSKN1D, recombinant protein Casein kinase 1 epsilon (CSKN1E) was added to the substrate solution in a concentration of 30 nM and gently mixed.

Casein kinase 1 epsilon (CSKN1E), sequence (P49674 whole entry): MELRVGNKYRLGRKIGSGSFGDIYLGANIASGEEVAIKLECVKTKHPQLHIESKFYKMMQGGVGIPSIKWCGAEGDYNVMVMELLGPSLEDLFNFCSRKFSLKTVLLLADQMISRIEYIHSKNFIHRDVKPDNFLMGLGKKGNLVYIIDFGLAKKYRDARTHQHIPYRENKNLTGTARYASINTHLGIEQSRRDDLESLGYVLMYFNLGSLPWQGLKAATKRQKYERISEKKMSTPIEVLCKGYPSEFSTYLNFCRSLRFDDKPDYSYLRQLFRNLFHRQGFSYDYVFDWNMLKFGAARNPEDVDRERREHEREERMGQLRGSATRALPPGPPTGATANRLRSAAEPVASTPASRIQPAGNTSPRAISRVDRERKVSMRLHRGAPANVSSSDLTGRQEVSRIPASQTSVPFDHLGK
Casein kinase 1 delta (CSKN1D), sequence (P48730 whole entry): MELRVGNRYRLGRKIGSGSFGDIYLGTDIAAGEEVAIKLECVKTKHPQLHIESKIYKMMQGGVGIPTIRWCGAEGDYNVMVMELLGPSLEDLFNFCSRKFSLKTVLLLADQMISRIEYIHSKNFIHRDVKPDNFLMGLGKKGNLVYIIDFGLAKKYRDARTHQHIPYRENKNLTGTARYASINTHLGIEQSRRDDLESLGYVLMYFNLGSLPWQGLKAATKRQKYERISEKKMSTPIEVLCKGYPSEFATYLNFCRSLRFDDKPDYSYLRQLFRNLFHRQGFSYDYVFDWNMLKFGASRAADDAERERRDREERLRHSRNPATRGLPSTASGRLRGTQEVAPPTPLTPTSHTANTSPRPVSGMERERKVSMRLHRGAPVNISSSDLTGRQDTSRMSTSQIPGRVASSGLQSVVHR

| Compound | IC50 [1] [nM] | IC50 [2] [nM] |
| --- | --- | --- |
| O=C(Nc1nc2cc3c(cc2[nH]1)OC(F)(F)O3)c1csc(-c2ccc(C(F)(F)F)cc2)n1 [Compound 5, N-(2,2-difluoro-5H-[1,3]dioxolo[4′,5′:4,5]benzo[1,2-d]imidazol-6-yl)-2-(4-(trifluoromethyl)phenyl)thiazole-4-carboxamide] | > 1000 | > 1000 |
| O=C(Nc1nc2cc3c(cc2[nH]1)OC(F)(F)O3)c1csc(-c2cccc(Cl)c2Cl)n1 [Compound 6, 2-(2,3-dichlorophenyl)-N-(2,2-difluoro-5H-[1,3]dioxolo[4′,5′:4,5]benzo[1,2-d]imidazol-6-yl)thiazole-4-carboxamide] | > 1000 | > 1000 |
| O=C(/C=C/c1ccccc1)Nc1nc(C(=O)Nc2nc3cc4c(cc3[nH]2)OC(F)(F)O4)co1 [Compound 9, 2-cinnamamido-N-(2,2-difluoro-5H-[1,3]dioxolo[4′,5′:4,5]benzo[1,2-d]imidazol-6-yl)oxazole-4-carboxamide] | > 1000 | > 1000 |
| COc1ccccc1C(=O)Nc1nc(C(=O)Nc2nc3cc4c(cc3[nH]2)OC(F)(F)O4)co1 [Compound 12, N-(2,2-difluoro-5H-[1,3]dioxolo[4′,5′:4,5]benzo[1,2-d]imidazol-6-yl)-2-(2-methoxybenzamido)oxazole-4-carboxamide] | 200 to 1000 | > 1000 |
| Cc1nn(-c2ccc(Cl)c(Cl)c2)c(C)c1C(=O)Nc1nc2cc3c(cc2[nH]1)OC(F)(F)O3 [Compound 14, 1-(3,4-dichlorophenyl)-N-(2,2-difluoro-5H-[1,3]dioxolo[4′,5′:4,5]benzo[1,2-d]imidazol-6-yl)-3,5-dimethyl-1H-pyrazole-4-carboxamide] | > 1000 | > 1000 |
| Cc1nn(-c2ccccc2)c(C)c1C(=O)Nc1nc2cc3c(cc2[nH]1)OC(F)(F)O3 [Compound 15, N-(2,2-difluoro-5H-[1,3]dioxolo[4′,5′:4,5]benzo[1,2-d]imidazol-6-yl)-3,5-dimethyl-1-phenyl-1H-pyrazole-4-carboxamide] | > 1000 | > 1000 |
| O=C(Nc1nc2cc3c(cc2[nH]1)OC(F)(F)O3)c1cn(-c2ccccc2)nc1C(F)(F)F [Compound 16, N-(2,2-difluoro-5H-[1,3]dioxolo[4′,5′:4,5]benzo[1,2-d]imidazol-6-yl)-1-phenyl-3-(trifluoromethyl)-1H-pyrazole-4-carboxamide] | 200 to 1000 | 200 to 1000 |
| O=C(O)c1cccc(C(=O)Nc2nc3cc4c(cc3[nH]2)OC(F)(F)O4)c1 [Compound 18B, 3-((2,2-Difluoro-5H-[1,3]dioxolo[4′,5′:4,5]benzo[1,2-d]imidazol-6-yl)carbamoyl)benzoic acid] | 200 to 1000 | 200 to 1000 |
| Cn1cccc1C(=O)Nc1nc2cc3c(cc2[nH]1)OC(F)(F)O3 [Compound 20B, N-(2,2-Difluoro-5H-[1,3]dioxolo[4′,5′:4,5]benzo[1,2-d]imidazol-6-yl)-1-methyl-1H-pyrrole-2-carboxamide] | 200 to 1000 | > 1000 |
| Nc1ccc(C(=O)Nc2nc3cc4c(cc3[nH]2)OC(F)(F)O4)cc1F [Compound 127, 4-amino-N-(2,2-difluoro-5H-[1,3]dioxolo[4′,5′:4,5]benzo[1,2-d]imidazol-6-yl)-3-fluorobenzamide] | 200 to 1000 | – |
| Cc1cc(C(=O)Nc2nc3cc4c(cc3[nH]2)OC(F)(F)O4)no1 [Compound 145, N-(2,2-difluoro-5H-[1,3]dioxolo[4′,5′:4,5]benzo[1,2-d]imidazol-6-yl)-5-methylisoxazole-3-carboxamide] | > 1000 | – |
| Cc1cc(C(=O)Nc2nc3cc4c(cc3[nH]2)OC(F)(F)O4)nn1C [Compound 146, N-(2,2-difluoro-5H-[1,3]dioxolo[4′,5′:4,5]benzo[1,2-d]imidazol-6-yl)-1,5-dimethyl-1H-pyrazole-3-carboxamide] | > 1000 | – |

The next lines start with the values.

| IC50 [1] [nM] | IC50 [2] [nM] | Compound |
| --- | --- | --- |
| 200 to 1000 | 200 to 1000 | O=C(Nc1nc2cc3c(cc2[nH]1)OC(F)(F)O3)c1csc(-c2ccccc2)n1 [Compound 4, N-(2,2-difluoro-5H-[1,3]dioxolo[4′,5′:4,5]benzo[1,2-d]imidazol-6-yl)-2-phenylthiazole-4-carboxamide] |
| 200 to 1000 | 200 to 1000 | O=C(Nc1nc(C(=O)Nc2nc3cc4c(cc3[nH]2)OC(F)(F)O4)cs1)c1ccc(Cl)cc1 [Compound 8, 2-(4-chlorobenzamido)-N-(2,2-difluoro-5H-[1,3]dioxolo[4′,5′:4,5]benzo[1,2-d]imidazol-6-yl)thiazole-4-carboxamide] |
| < 200 | < 200 | O=C(Cc1cccc(Cl)c1)Nc1nc2cc3c(cc2[nH]1)OC(F)(F)O3 [Compound 8B, 2-(3-chlorophenyl)-N-(2,2-difluoro-5H-[1,3]dioxolo[4′,5′:4,5]benzo[1,2-d]imidazol-6-yl)acetamide] |
| 200 to 1000 | > 1000 | O=C(Nc1nc2cc3c(cc2[nH]1)OC(F)(F)O3)c1coc(NC(=O)c2ccco2)n1 [Compound 10, N-(2,2-difluoro-5H-[1,3]dioxolo[4′,5′:4,5]benzo[1,2-d]imidazol-6-yl)-2-(furan-2-carboxamido)oxazole-4-carboxamide] |
| < 200 | < 200 | O=C(Nc1nc2cc3c(cc2[nH]1)OC(F)(F)O3)c1csc(NC(=O)c2ccco2)n1 [Compound 11, N-(2,2-difluoro-5H-[1,3]dioxolo[4′,5′:4,5]benzo[1,2-d]imidazol-6-yl)-2-(furan-2-carboxamido)thiazole-4-carboxamide] |
| < 200 | 200 to 1000 | Nc1c[nH]c(C(=O)Nc2nc3cc4c(cc3[nH]2)OC(F)(F)O4)c1 [Compound 15B, 4-Amino-N-(2,2-difluoro-5H-[1,3]dioxolo[4′,5′:4,5]benzo[1,2-d]imidazol-6-yl)-1H-pyrrole-2-carboxamide] |
| < 200 | < 200 | O=C(Nc1nc2cc3c(cc2[nH]1)OC(F)(F)O3)c1nsc(NC(=O)c2ccccc2OC(F)(F)F)n1 [Compound 17, N-(2,2-difluoro-5H-[1,3]dioxolo[4′,5′:4,5]benzo[1,2-d]imidazol-6-yl)-5-(2-(trifluoromethoxy)benzamido)-1,2,4-thiadiazole-3-carboxamide] |
| < 200 | 200 to 1000 | O=C(Nc1nc2cc3c(cc2[nH]1)OC(F)(F)O3)c1csc(-c2cccc(Cl)c2)n1 [Compound 17B, 2-(3-chlorophenyl)-N-(2,2-difluoro-5H-[1,3]dioxolo[4′,5′:4,5]benzo[1,2-d]imidazol-6-yl)thiazole-4-carboxamide] |
| < 200 | 200 to 1000 | O=C(Nc1nc2cc3c(cc2[nH]1)OC(F)(F)O3)c1ccncc1 [Compound 18, N-(2,2-difluoro-5H-[1,3]dioxolo[4′,5′:4,5]benzo[1,2-d]imidazol-6-yl)isonicotinamide] |
| < 200 | < 200 | COc1ccc(OC)c(S(=O)(=O)Nc2nc(C(=O)Nc3nc4cc5c(cc4[nH]3)OC(F)(F)O5)cs2)c1 [Compound 19, N-(2,2-difluoro-5H-[1,3]dioxolo[4′,5′:4,5]benzo[1,2-d]imidazol-6-yl)-2-(2,5-dimethoxyphenylsulfonamido)thiazole-4-carboxamide] |
| < 200 | 200 to 1000 | O=C(Nc1nc2cc3c(cc2[nH]1)OC(F)(F)O3)c1ccsc1 [Compound 20, N-(2,2-difluoro-5H-[1,3]dioxolo[4′,5′:4,5]benzo[1,2-d]imidazol-6-yl)thiophene-3-carboxamide] |
| < 200 | – | COc1cncc(C(=O)Nc2nc3cc4c(cc3[nH]2)OC(F)(F)O4)c1 [Compound 123, N-(2,2-difluoro-5H-[1,3]dioxolo[4′,5′:4,5]benzo[1,2-d]imidazol-6-yl)-5-methoxynicotinamide] |
| < 200 | – | COc1cc(C(=O)Nc2nc3cc4c(cc3[nH]2)OC(F)(F)O4)ccn1 [Compound 124, N-(2,2-difluoro-5H-[1,3]dioxolo[4′,5′:4,5]benzo[1,2-d]imidazol-6-yl)-2-methoxyisonicotinamide] |
| < 200 | – | Nc1ccc(C(=O)Nc2nc3cc4c(cc3[nH]2)OC(F)(F)O4)cc1C(F)(F)F [Compound 126, 4-amino-N-(2,2-difluoro-5H-[1,3]dioxolo[4′,5′:4,5]benzo[1,2-d]imidazol-6-yl)-3-(trifluoromethyl)benzamide] |
| < 200 | – | O=C(Nc1nc2cc3c(cc2[nH]1)OC(F)(F)O3)c1cccc(N2CCCCC2)c1 [Compound 128, N-(2,2-difluoro-5H-[1,3]dioxolo[4′,5′:4,5]benzo[1,2-d]imidazol-6-yl)-3-(piperidin-1-yl)benzamide] |
| < 200 | – | CC(C)c1nc(-c2cccc(C(=O)Nc3nc4cc5c(cc4[nH]3)OC(F)(F)O5)c2)no1 [Compound 131, N-(2,2-difluoro-5H-[1,3]dioxolo[4′,5′:4,5]benzo[1,2-d]imidazol-6-yl)-3-(5-isopropyl-1,2,4-oxadiazol-3-yl)benzamide] |
| < 200 | – | CC(C)(C)c1nc(-c2cccc(C(=O)Nc3nc4cc5c(cc4[nH]3)OC(F)(F)O5)c2)no1 [Compound 132, 3-(5-(tert-butyl)-1,2,4-oxadiazol-3-yl)-N-(2,2-difluoro-5H-[1,3]dioxolo[4′,5′:4,5]benzo[1,2-d]imidazol-6-yl)benzamide] |
| < 200 | – | CCOC(=O)c1cc(C)n(-c2cccc(C(=O)Nc3nc4cc5c(cc4[nH]3)OC(F)(F)O5)c2)c1C [Compound 139, ethyl 1-(3-((2,2-difluoro-5H-[1,3]dioxolo[4′,5′:4,5]benzo[1,2-d]imidazol-6-yl)carbamoyl)phenyl)-2,5-dimethyl-1H-pyrrole-3-carboxylate] |
